Consider 30 compounds from patent publication US7250442B2, “Dihydroindol-2-one derivatives as steroid hormone nuclear receptor modulators” (Eli Lilly and Company, priority 2003, dated 2007).

In this assay the target is T1, glucocorticoid receptor (Homo sapiens, UniProt P04150).
T1 construct: host or cells: A549 human lung epithelial cells (sonicated cell extract)
T1 sequence (P04150 1-777): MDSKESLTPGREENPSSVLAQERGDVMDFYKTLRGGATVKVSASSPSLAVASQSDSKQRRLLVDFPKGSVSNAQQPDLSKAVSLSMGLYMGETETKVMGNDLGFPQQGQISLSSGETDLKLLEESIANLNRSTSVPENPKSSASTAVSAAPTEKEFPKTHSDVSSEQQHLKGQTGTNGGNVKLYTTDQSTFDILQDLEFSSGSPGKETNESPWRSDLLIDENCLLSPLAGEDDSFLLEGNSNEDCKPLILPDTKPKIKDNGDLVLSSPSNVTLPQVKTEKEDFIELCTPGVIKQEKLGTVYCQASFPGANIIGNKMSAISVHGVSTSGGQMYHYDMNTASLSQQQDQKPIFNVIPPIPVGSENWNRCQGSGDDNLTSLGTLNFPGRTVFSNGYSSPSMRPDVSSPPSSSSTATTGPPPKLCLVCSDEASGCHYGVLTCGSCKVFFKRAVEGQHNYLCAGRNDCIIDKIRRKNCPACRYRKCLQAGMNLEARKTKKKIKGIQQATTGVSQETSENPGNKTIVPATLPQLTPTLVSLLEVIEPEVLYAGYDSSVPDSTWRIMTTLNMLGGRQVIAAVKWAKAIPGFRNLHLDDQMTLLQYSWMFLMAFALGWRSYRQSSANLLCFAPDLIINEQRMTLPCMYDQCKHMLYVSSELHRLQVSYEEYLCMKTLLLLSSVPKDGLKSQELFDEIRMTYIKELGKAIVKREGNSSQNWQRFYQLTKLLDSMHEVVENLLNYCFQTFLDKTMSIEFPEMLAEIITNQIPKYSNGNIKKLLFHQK
Kind of assay: Glucocorticoid Receptor Binding Assay ([3H]-dexamethasone displacement, A549 cell extract). The following applies: A549 human lung epithelial cell extract, 1.86 nM [3H]-dexamethasone; read-out: GR Ki. The procedure, abridged:
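A549 cell extract (50-200 ug; buffer 50 mM Tris-HCl pH 7.2 with glycerol, NaCl, MgCl2, EDTA, 10 mM molybdate) incubated with 1.86 nM [3H]-dexamethasone and test compound, 16 h at 4 °C. Unbound ligand removed with dextran-coated charcoal; bound radioactivity counted. IC50 converted to Ki via Cheng-Prusoff.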
What is called Ki is the equilibrium dissociation constant of an inhibitor or competing ligand from its target. As to `Cc1cc(C2(c3cc(C)c(O)c(C)c3)C(=O)N(Cc3cc(C(F)(F)F)ccc3F)c3ccccc32)cc(C)c1O` [Example 112, 1-(2-Fluoro-5-trifluoromethyl-benzyl)-3,3-bis-(4-hydroxy-3,5-dimethyl-phenyl)-1,3-dihydro-indol-2-one], the inhibitory constant (Ki) was at most 500 nM.

In the case of `COc1ccc(OC)c(C(=O)CN2C(=O)C(c3cc(C)c(O)c(C)c3)(c3cc(C)c(O)c(C)c3)c3ccccc32)c1` [Example 49, 1-[2-(2,5-Dimethoxy-phenyl)-2-oxo-ethyl]-3,3-bis-(4-hydroxy-3,5-dimethyl-phenyl)-1,3-dihydro-indol-2-one], the inhibitory constant (Ki) was at most 500 nM.

Consider `Cc1cc(C2(c3cc(C)c(O)c(C)c3)C(=O)N(Cc3ccc(Br)cc3F)c3ccccc32)cc(C)c1O` [Example 81, 1-(4-Bromo-2-fluoro-benzyl)-3,3-bis-(4-hydroxy-3,5-dimethyl-phenyl)-1,3-dihydro-indol-2-one], for which the inhibition constant (Ki) is at most 500 nM.

On to `COc1ccc(N2C(=O)C(c3cc(C)c(O)c(C)c3)(c3cc(C)c(O)c(C)c3)c3ccccc32)cc1` [Example 128, 3,3-Bis-(4-hydroxy-3,5-dimethyl-phenyl)-1-(4-methoxy-phenyl)-1,3-dihydro-indol-2-one], for which the Ki is at most 500 nM.

With `Cc1cc(C2(c3cc(C)c(O)c(C)c3)C(=O)N(C3CCCC3)c3ccccc32)cc(C)c1O` [Example 114, 1-Cyclopentyl-3,3-bis-(4-hydroxy-3,5-dimethyl-phenyl)-1,3-dihydro-indol-2-one], the Ki was at most 500 nM.

On to `Cc1cc(C2(c3cc(C)c(O)c(C)c3)C(=O)N(Cc3ccc(N)cc3)c3ccccc32)cc(C)c1O` [Example 117, 11-(4-Amino-benzyl)-3,3-bis-(4-hydroxy-3,5-dimethyl-phenyl)-1,3-dihydro-indol-2-one], for which the Ki is at most 500 nM.

With `Cc1cc(C2(c3ccc(O)cc3)C(=O)N(Cc3ccccc3)c3ccccc32)cc(C)c1O` (stereo not drawn) [Example 29, 1-Benzyl-3-(4-hydroxy-3,5-dimethyl-phenyl)-3-(4-hydroxy-phenyl)-1,3-dihydro-indol-2-one], the inhibition constant (Ki) was at most 500 nM.

Turning to `Cc1cc(C2(c3cc(C)c(O)c(C)c3)C(=O)N(Cc3cccc4ccccc34)c3ccccc32)cc(C)c1O` [Example 10, 3,3-Bis-(4-hydroxy-3,5-dimethyl-phenyl)-1-naphthalen-1-ylmethyl-1,3-dihydro-indol-2-one], the inhibition constant (Ki) was at most 10000 nM.

For `COc1ccc(C(=O)CN2C(=O)C(c3cc(C)c(O)c(C)c3)(c3cc(C)c(O)c(C)c3)c3ccccc32)cc1` [Example 46, 3,3-Bis-(4-hydroxy-3,5-dimethyl-phenyl)-1-[2-(4-methoxy-phenyl)-2-oxo-ethyl]-1,3-dihydro-indol-2-one], the inhibition constant Ki was at most 500 nM.

In the case of `Cc1cc(C2(c3cc(C)c(O)c(C)c3)C(=O)N(c3cccc(Br)c3)c3ccccc32)cc(C)c1O` [Example 139, 1-(3-Bromo-phenyl)-3,3-bis-(4-hydroxy-3,5-dimethyl-phenyl)-1,3-dihydro-indol-2-one], the Ki is at most 500 nM.

As to `Cc1ccc2c(c1)C(c1cc(C)c(O)c(C)c1)(c1cc(C)c(O)c(C)c1)C(=O)N2Cc1csc(C)n1` [Example 93, 3,3-Bis-(4-hydroxy-3,5-dimethyl-phenyl)-5-methyl-1-(2-methyl-thiazol-4-ylmethyl)-1,3-dihydro-indol-2-one], the Ki is at most 10000 nM.

On to `Cc1cc(C2(c3cc(C)c(O)c(C)c3)C(=O)N(Cc3ccccc3C#N)c3ccccc32)cc(C)c1O` [Example 51, 2-[3,3-Bis-(4-hydroxy-3,5-dimethyl-phenyl)-2-oxo-2,3-dihydro-indol-1-ylmethyl]-benzonitrile], for which the Ki is at most 500 nM.

Turning to `Cc1cc(C2(c3cc(C)c(O)c(C)c3)C(=O)N(Cc3ccc(C(F)(F)F)cc3)c3ccccc32)cc(C)c1O` [Example 57, 3,3-Bis-(4-hydroxy-3,5-dimethyl-phenyl)-1-(4-trifluoromethyl-benzyl)-1,3-dihydro-indol-2-one], the Ki is at most 500 nM.

With `Cc1cc(C2(c3cc(C)c(O)c(C)c3)C(=O)N(Cc3ccc(F)cc3)c3ccccc32)cc(C)c1O` [Example 2], the Ki was at most 500 nM.

In the case of `COC(=O)c1cccc(CN2C(=O)C(c3cc(C)c(O)c(C)c3)(c3cc(C)c(O)c(C)c3)c3ccccc32)c1` [Example 55, 3-[3,3-Bis-(4-hydroxy-3,5-dimethyl-phenyl)-2-oxo-2,3-dihydro-indol-1-ylmethyl]-benzoic acid methyl ester], the Ki was at most 500 nM.

Turning to `Cc1cc(C2(c3cc(C)c(O)c(C)c3)C(=O)N(Cc3ccc(O)cc3)c3ccccc32)cc(C)c1O` [Example 88, 1-(4-Hydroxy-benzyl)-3,3-bis-(4-hydroxy-3,5-dimethyl-phenyl)-1,3-dihydro-indol-2-one], the Ki was at most 500 nM.

As for `COc1cccc(C(=O)CN2C(=O)C(c3cc(C)c(O)c(C)c3)(c3cc(C)c(O)c(C)c3)c3ccccc32)c1` [Example 45, 3,3-Bis-(4-hydroxy-3,5-dimethyl-phenyl)-1-[2-(3-methoxy-phenyl)-2-oxo-ethyl]-1,3-dihydro-indol-2-one], the inhibition constant (Ki) is at most 500 nM.

For `Cc1cc(C2(c3cc(C)c(O)c(C)c3)C(=O)N(CC3CC3)c3ccccc32)cc(C)c1O` [Example 105, 1-Cyclopropylmethyl-3,3-bis-(4-hydroxy-3,5-dimethyl-phenyl)-1,3-dihydro-indol-2-one], the inhibitory constant (Ki) was at most 500 nM.

For `Cc1cc(C2(c3cc(C)c(O)c(C)c3)C(=O)N(Cc3ccccn3)c3ccccc32)cc(C)c1O` [Example 100, 3,3-Bis-(4-hydroxy-3,5-dimethyl-phenyl)-1-pyridin-2-ylmethyl-1,3-dihydro-indol-2-one], the Ki was at most 500 nM.

With `Cc1cc(C2(c3cc(C)c(O)c(C)c3)C(=O)N(Cc3c(C)cccc3C)c3ccccc32)cc(C)c1O` [Example 107, 1-(2,6-Dimethyl-benzyl)-3,3-bis-(4-hydroxy-3,5-dimethyl-phenyl)-1,3-dihydro-indol-2-one], the inhibition constant Ki was at most 500 nM.

Turning to `Cc1nc(CN2C(=O)C(c3cc(C)c(O)c(C)c3)(c3cc(C)c(O)c(C)c3)c3ccccc32)cs1` [Example 89, 3,3-Bis-(4-hydroxy-3,5-dimethyl-phenyl)-1-(2-methyl-thiazol-4-ylmethyl)-1,3-dihydro-indol-2-one], the Ki is at most 1000 nM.

Regarding `Cc1cc(C2(c3cc(C)c(O)c(C)c3)C(=O)N(Cc3cccc(C(F)(F)F)c3)c3ccccc32)cc(C)c1O` [Example 61, 3,3-Bis-(4-hydroxy-3,5-dimethyl-phenyl)-1-(3-trifluoromethyl-benzyl)-1,3-dihydro-indol-2-one], the Ki was at most 500 nM.

Take `Cc1cc(C2(c3cc(C)c(O)c(C)c3)C(=O)N(Cc3ccc(C(C)(C)C)cc3)c3ccccc32)cc(C)c1O` [Example 7, 1-(4-tert-Butyl-benzyl)-3,3-bis-(4-hydroxy-3,5-dimethyl-phenyl)-1,3-dihydro-indol-2-one]: the inhibitory constant (Ki) was at most 1000 nM.

`Cc1cc(C2(c3cc(C)c(O)c(C)c3)C(=O)N(c3cccnc3)c3ccccc32)cc(C)c1O` [Example 135, 3,3-Bis-(4-hydroxy-3,5-dimethyl-phenyl)-1-pyridin-3-yl-1,3-dihydro-indol-2-one]: the Ki was at most 500 nM.

With `Cc1cc(C2(c3cc(C)c(O)c(C)c3)C(=O)N(Cc3cccc(N)c3)c3ccccc32)cc(C)c1O` [Example 118, 1-(3-Amino-benzyl)-3,3-bis-(4-hydroxy-3,5-dimethyl-phenyl)-1,3-dihydro-indol-2-one], the inhibition constant (Ki) was at most 500 nM.

On to `COc1ccc2c(c1)C(c1cc(C)c(O)c(C)c1)(c1cc(C)c(O)c(C)c1)C(=O)N2Cc1ccccc1` [Example 16, 1-Benzyl-3,3-bis-(4-hydroxy-3,5-dimethyl-phenyl)-5-methoxy-1,3-dihydro-indol-2-one], for which the inhibition constant (Ki) was at most 500 nM.

`Cc1cc(C2(c3cc(C)c(O)c(C)c3)C(=O)N(Cc3cccc(Cl)c3)c3ccccc32)cc(C)c1O` [Example 60, 1-(3-Chloro-benzyl)-3,3-bis-(4-hydroxy-3,5-dimethyl-phenyl)-1,3-dihydro-indol-2-one]: the Ki was at most 500 nM.

In the case of `COc1cccc(N2C(=O)C(c3cc(C)c(O)c(C)c3)(c3cc(C)c(O)c(C)c3)c3ccccc32)c1` [Example 134, 3,3-Bis-(4-hydroxy-3,5-dimethyl-phenyl)-1-(3-methoxy-phenyl)-1,3-dihydro-indol-2-one], the inhibitory constant (Ki) was at most 500 nM.

Turning to `Cc1cc(C2(c3cc(C)c(O)c(C)c3)C(=O)N(CCc3scnc3C)c3ccccc32)cc(C)c1O` [Example 121, 3,3-Bis-(4-hydroxy-3,5-dimethyl-phenyl)-1-[2-(4-methyl-thiazol-5-yl)-ethyl]-1,3-dihydro-indol-2-one], the Ki is at most 500 nM.

Turning to `COc1ccccc1C(=O)CN1C(=O)C(c2cc(C)c(O)c(C)c2)(c2cc(C)c(O)c(C)c2)c2ccccc21` [Example 44, 3,3-Bis-(4-hydroxy-3,5-dimethyl-phenyl)-1-[2-(2-methoxy-phenyl)-2-oxo-ethyl]-1,3-dihydro-indol-2-one], the inhibition constant (Ki) is at most 500 nM.
